According to ChEMBL document CHEMBL3885881, “DrugMatrix”:

Species: Rattus norvegicus
Assay: DrugMatrix - Regimen: Daily Repeat
Type: toxicity, organism-based, Sprague-Dawley
Set-up: regimen Daily Repeat, gender Male, age 6-8 weeks
Conditions: in vivo, po, route oral GAVAGE, vehicle .5 % CMC; for BASOPHIL / EOSINOPHIL / ERYTHROCYTE COUNT / HEMATOCRIT / HEMOGLOBIN / LEUKOCYTE COUNT / LYMPHOCYTE / MEAN CORPUSCULAR HEMOGLOBIN / MEAN CORPUSCULAR HEMOGLOBIN CONCENTRATION / MEAN CORPUSCULAR VOLUME / MONOCYTE / NEUTROPHIL / PLATELET COUNT: tissue Blood; for ALANINE AMINOTRANSFERASE / ALBUMIN / ALKALINE PHOSPHATASE / ASPARTATE AMINOTRANSFERASE / BLOOD UREA NITROGEN / CHLORIDE / CHOLESTEROL / CREATINE PHOSPHOKINASE / CREATININE / GLUCOSE / PHOSPHORUS / POTASSIUM / SODIUM / TOTAL BILIRUBIN / TOTAL PROTEIN: tissue Plasma
[1] = 0 mg/kg, 72 h, dose level Control, time 3 day
[2] = 0 mg/kg, 120 h, dose level Control, time 5 day
[3] = 94 mg/kg, 72 h, dose level High, time 3 day
[4] = 94 mg/kg, 120 h, dose level High, time 5 day
[5] = […], 72 h, dose 9.4 mg/Kg, dose level Low, time 3 day
[6] = […], 120 h, dose 9.4 mg/Kg, dose level Low, time 5 day

In the case of O=C(CCCN1CC=C(n2c(=O)[nH]c3ccccc32)CC1)c1ccc(F)cc1 [DROPERIDOL], the BASOPHIL [1] is reported as 1.52%, the EOSINOPHIL [1] is reported as 0.98% and the “ERYTHROCYTE COUNT” value [1] is reported as 6.96 x10E6/uL. For the same compound, the HEMATOCRIT [1] was 44.65%, the HEMOGLOBIN [1] was 13.62 G/DL and the “LEUKOCYTE COUNT” value [1] was 9.83 x10E3/uL. For the same compound, the LYMPHOCYTE [1] was 76.48%, the “MEAN CORPUSCULAR HEMOGLOBIN” value [1] was 19.57 pg and the “MEAN CORPUSCULAR HEMOGLOBIN CONCENTRATION” value [1] was 30.47 G/DL. For the same compound, the “MEAN CORPUSCULAR VOLUME” value [1] was 64.22 fL, the MONOCYTE [1] was 2.13% and the NEUTROPHIL [1] was 18.6%. The “PLATELET COUNT” value [1] was 1217.17 x10E3/uL, the “ALANINE AMINOTRANSFERASE” value [1] was 41 u/L and the ALBUMIN [1] was 3.77 G/DL. The “ALKALINE PHOSPHATASE” value [1] was 411.83 u/L, the “ASPARTATE AMINOTRANSFERASE” value [1] was 62.83 u/L and the “BLOOD UREA NITROGEN” value [1] was 15.17 mg/dL. For the same compound, the CHLORIDE [1] was 104.33 MEQ/L, the CHOLESTEROL [1] was 71.17 mg/dL and the “CREATINE PHOSPHOKINASE” value [1] was 123.5 u/L. For the same compound, the CREATININE [1] was 0.55 mg/dL, the GLUCOSE [1] was 182.67 mg/dL and the PHOSPHORUS [1] was 11.23 mg/dL. For the same compound, the POTASSIUM [1] was 7.03 MEQ/L, the SODIUM [1] was 148 MEQ/L and the “TOTAL BILIRUBIN” value [1] was 0.57 mg/dL. For the same compound, the “TOTAL PROTEIN” value [1] was 6.85 G/DL, the BASOPHIL [2] was 1.35% and the EOSINOPHIL [2] was 0.43%. The “ERYTHROCYTE COUNT” value [2] was 6.96 x10E6/uL, the HEMATOCRIT [2] was 44.35% and the HEMOGLOBIN [2] was 13.98 G/DL. For the same compound, the “LEUKOCYTE COUNT” value [2] was 9.45 x10E3/uL, the LYMPHOCYTE [2] was 80.83% and the “MEAN CORPUSCULAR HEMOGLOBIN” value [2] was 20.1 pg. For the same compound, the “MEAN CORPUSCULAR HEMOGLOBIN CONCENTRATION” value [2] was 31.52 G/DL, the “MEAN CORPUSCULAR VOLUME” value [2] was 63.72 fL and the MONOCYTE [2] was 2.37%. The NEUTROPHIL [2] was 14.05%, the “PLATELET COUNT” value [2] was 1298 x10E3/uL and the “ALANINE AMINOTRANSFERASE” value [2] was 42.17 u/L. For the same compound, the ALBUMIN [2] was 3.77 G/DL, the “ALKALINE PHOSPHATASE” value [2] was 419 u/L and the “ASPARTATE AMINOTRANSFERASE” value [2] was 66.67 u/L. For the same compound, the “BLOOD UREA NITROGEN” value [2] was 16.67 mg/dL, the CHLORIDE [2] was 103.17 MEQ/L and the CHOLESTEROL [2] was 66.33 mg/dL. The “CREATINE PHOSPHOKINASE” value [2] was 148.33 u/L, the CREATININE [2] was 0.58 mg/dL and the GLUCOSE [2] was 196.83 mg/dL. For the same compound, the PHOSPHORUS [2] was 11.8 mg/dL, the POTASSIUM [2] was 6.47 MEQ/L and the SODIUM [2] was 148.33 MEQ/L. The “TOTAL BILIRUBIN” value [2] was 0.53 mg/dL, the “TOTAL PROTEIN” value [2] was 6.77 G/DL and the BASOPHIL [3] was 2.03%. For the same compound, the EOSINOPHIL [3] was 0.53%, the “ERYTHROCYTE COUNT” value [3] was 7.81 x10E6/uL and the HEMATOCRIT [3] was 49.37%. The HEMOGLOBIN [3] was 15.57 G/DL, the “LEUKOCYTE COUNT” value [3] was 13.33 x10E3/uL and the LYMPHOCYTE [3] was 87.57%. The “MEAN CORPUSCULAR HEMOGLOBIN” value [3] was 20.1 pg, the “MEAN CORPUSCULAR HEMOGLOBIN CONCENTRATION” value [3] was 31.57 G/DL and the “MEAN CORPUSCULAR VOLUME” value [3] was 63.57 fL. The MONOCYTE [3] was 2.1%, the NEUTROPHIL [3] was 7% and the “PLATELET COUNT” value [3] was 1484.33 x10E3/uL. The “ALANINE AMINOTRANSFERASE” value [3] was 35.67 u/L, the ALBUMIN [3] was 4.03 G/DL and the “ALKALINE PHOSPHATASE” value [3] was 335 u/L. For the same compound, the “ASPARTATE AMINOTRANSFERASE” value [3] was 61.67 u/L, the “BLOOD UREA NITROGEN” value [3] was 21.67 mg/dL and the CHLORIDE [3] was 102.33 MEQ/L. The CHOLESTEROL [3] was 79.67 mg/dL, the “CREATINE PHOSPHOKINASE” value [3] was 112.67 u/L and the CREATININE [3] was 0.67 mg/dL. The GLUCOSE [3] was 149 mg/dL, the PHOSPHORUS [3] was 11.77 mg/dL and the POTASSIUM [3] was 7.13 MEQ/L. For the same compound, the SODIUM [3] was 148 MEQ/L, the “TOTAL BILIRUBIN” value [3] was 0.6 mg/dL and the “TOTAL PROTEIN” value [3] was 7.1 G/DL. The BASOPHIL [4] was 1.4%, the EOSINOPHIL [4] was 0.5% and the “ERYTHROCYTE COUNT” value [4] was 8.34 x10E6/uL. The HEMATOCRIT [4] was 50.33%, the HEMOGLOBIN [4] was 16.1 G/DL and the “LEUKOCYTE COUNT” value [4] was 13.23 x10E3/uL. The LYMPHOCYTE [4] was 84.5%, the “MEAN CORPUSCULAR HEMOGLOBIN” value [4] was 19.37 pg and the “MEAN CORPUSCULAR HEMOGLOBIN CONCENTRATION” value [4] was 32.03 G/DL. For the same compound, the “MEAN CORPUSCULAR VOLUME” value [4] was 60.43 fL, the MONOCYTE [4] was 2.13% and the NEUTROPHIL [4] was 10.53%. The “PLATELET COUNT” value [4] was 1440.33 x10E3/uL, the “ALANINE AMINOTRANSFERASE” value [4] was 53 u/L and the ALBUMIN [4] was 3.87 G/DL. For the same compound, the “ALKALINE PHOSPHATASE” value [4] was 248 u/L, the “ASPARTATE AMINOTRANSFERASE” value [4] was 83 u/L and the “BLOOD UREA NITROGEN” value [4] was 23.33 mg/dL. For the same compound, the CHLORIDE [4] was 103 MEQ/L, the CHOLESTEROL [4] was 68 mg/dL and the “CREATINE PHOSPHOKINASE” value [4] was 108.67 u/L. It also gave a CREATININE [4] of 0.67 mg/dL, a GLUCOSE [4] of 160.67 mg/dL and a PHOSPHORUS [4] of 12.3 mg/dL. The POTASSIUM [4] was 7.17 MEQ/L, the SODIUM [4] was 149 MEQ/L and the “TOTAL BILIRUBIN” value [4] was 0.67 mg/dL. For the same compound, the “TOTAL PROTEIN” value [4] was 6.93 G/DL, the BASOPHIL [5] was 1.77% and the EOSINOPHIL [5] was 0.47%. For the same compound, the “ERYTHROCYTE COUNT” value [5] was 7.08 x10E6/uL, the HEMATOCRIT [5] was 45.83% and the HEMOGLOBIN [5] was 14.3 G/DL. For the same compound, the “LEUKOCYTE COUNT” value [5] was 15.23 x10E3/uL, the LYMPHOCYTE [5] was 83.7% and the “MEAN CORPUSCULAR HEMOGLOBIN” value [5] was 20.13 pg. For the same compound, the “MEAN CORPUSCULAR HEMOGLOBIN CONCENTRATION” value [5] was 31.1 G/DL, the “MEAN CORPUSCULAR VOLUME” value [5] was 64.77 fL and the MONOCYTE [5] was 1.6%. The NEUTROPHIL [5] was 11.93%, the “PLATELET COUNT” value [5] was 1499.67 x10E3/uL and the “ALANINE AMINOTRANSFERASE” value [5] was 36.67 u/L. The ALBUMIN [5] was 3.67 G/DL, the “ALKALINE PHOSPHATASE” value [5] was 351.67 u/L and the “ASPARTATE AMINOTRANSFERASE” value [5] was 62.33 u/L. For the same compound, the “BLOOD UREA NITROGEN” value [5] was 14 mg/dL, the CHLORIDE [5] was 103.67 MEQ/L and the CHOLESTEROL [5] was 70.33 mg/dL. For the same compound, the “CREATINE PHOSPHOKINASE” value [5] was 125.33 u/L, the CREATININE [5] was 0.6 mg/dL and the GLUCOSE [5] was 162.33 mg/dL. For the same compound, the PHOSPHORUS [5] was 12.83 mg/dL, the POTASSIUM [5] was 7.2 MEQ/L and the SODIUM [5] was 147.67 MEQ/L. For the same compound, the “TOTAL BILIRUBIN” value [5] was 0.5 mg/dL, the “TOTAL PROTEIN” value [5] was 6.57 G/DL and the BASOPHIL [6] was 2.17%. The EOSINOPHIL [6] was 0.4%, the “ERYTHROCYTE COUNT” value [6] was 6.89 x10E6/uL and the HEMATOCRIT [6] was 44.3%. The HEMOGLOBIN [6] was 14.03 G/DL, the “LEUKOCYTE COUNT” value [6] was 11 x10E3/uL and the LYMPHOCYTE [6] was 83.27%. The “MEAN CORPUSCULAR HEMOGLOBIN” value [6] was 20.4 pg, the “MEAN CORPUSCULAR HEMOGLOBIN CONCENTRATION” value [6] was 31.7 G/DL and the “MEAN CORPUSCULAR VOLUME” value [6] was 64.43 fL. For the same compound, the MONOCYTE [6] was 2.07%, the NEUTROPHIL [6] was 11.2% and the “PLATELET COUNT” value [6] was 1298.67 x10E3/uL. For the same compound, the “ALANINE AMINOTRANSFERASE” value [6] was 37.67 u/L, the ALBUMIN [6] was 3.63 G/DL and the “ALKALINE PHOSPHATASE” value [6] was 359 u/L. For the same compound, the “ASPARTATE AMINOTRANSFERASE” value [6] was 62.33 u/L, the “BLOOD UREA NITROGEN” value [6] was 13.33 mg/dL and the CHLORIDE [6] was 101.33 MEQ/L. For the same compound, the CHOLESTEROL [6] was 65 mg/dL, the “CREATINE PHOSPHOKINASE” value [6] was 109 u/L and the CREATININE [6] was 0.5 mg/dL. The GLUCOSE [6] was 191 mg/dL, the PHOSPHORUS [6] was 12.2 mg/dL and the POTASSIUM [6] was 7.17 MEQ/L. For the same compound, the SODIUM [6] was 147.33 MEQ/L, the “TOTAL BILIRUBIN” value [6] was 0.3 mg/dL and the “TOTAL PROTEIN” value [6] was 6.4 G/DL.
